# “And” between values parts separate entries of the source, which are not always exact repeats. Equal values may be shown once. Where a name gives a salt, the structure may show the parent alone. Read-outs that look alike come from different tables or passages of the source.
# Experiments:
# L1210 leukemia = experiment: Lymphoid Leukemia L1210, survival of tumored mice; format: in vivo, CD2F1 mice; conditions: for response vs control in vivo at 400 mg/kg: 400 mg/kg i.p.; for response vs control in vivo at 200 mg/kg: 200 mg/kg i.p.; for response vs control in vivo at 50 mg/kg: 50 mg/kg i.p.
# How it was run: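 Male CD2 F1 mice, six per group, received 10^5 L1210 cells i.p. on day 0. Compounds in hydroxypropylcellulose, saline/Tween 80 or saline were given i.p. at various doses once daily on days 1-9, with vehicle controls.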
# [1] = system: human colon carcinoma cells HCT-15; experiment: Human colon tumor test in vitro, HCT-15 cell growth inhibition; format: cell-based; conditions: for IC50: Homo sapiens, HCT-15, 72 h, read-out: in vitro HCT-15 ID50 (50 percent inhibition of number of doublings); for in vitro HCT-15 ID50 (50 percent inhibition of number of doublings): 4320 min
# Procedure: The compound of this invention were also tested for their ability to inhibit the growth of human colon carcinoma cells in vitro.
# The human colon carcinoma cells, designated HCT-15, were derived from a specimen of an adenocarcinoma of human colon removed during surgery. The cells were grown in Roswell Park Medical Institute (RPMI) Medium 1640 supplemented with 10% heat inactivated fetal calf serum, penicillin (100 units/ml), streptomycin (100 μg/ml), gentamicin (20 μg/ml), fungizone (25 μg/ml), 0.075 percent sodium bicarbonate, […] 4-(2-hydroxyethyl)-1-piperazineethanesulfonic acid and […] N-tris(hydroxymethyl)methylglycine. […] On day 1 cells from sample dishes were harvested using trypsin (0.25%) treatment and counted with a hemocytometer to determine the number of cells per dish at the time of the addition of the compounds. Compounds of this invention were added in varying concentrations to other cultures. On day 4, treated and control cultures were harvested by trypsin treatment and the number of cells was determined. The number of doublings for the control cells was determined from the cell numbers on days 1 and 4. The ID50, the concentration of compound required to inhibit by 50 percent the number of doublings, was then calculated from the dose-response curve in which cell numbers were plotted on log-log paper against compound concentrations in micrograms per ml.
# [2] = Mus musculus, L1210, ip, 720 h, 75 mg/kg i.p., read-out: L1210 Leukemia % T/C (median survival time)
# [3] = HCT-15 cells, compound day 1 to day 4
# [4] = Mus musculus, L1210, ip, 720 h, read-out: L1210 Leukemia % T/C (median survival time)
# [5] = Mus musculus, L1210, ip, 720 h, 100 mg/kg i.p., read-out: L1210 Leukemia % T/C (median survival time)
# [6] = Mus musculus, L1210, ip, 720 h, 25 mg/kg i.p., nonoptimal Q1DX9 instead of Q3DX9, read-out: L1210 Leukemia % T/C (median survival time)
# [7] = Mus musculus, L1210, ip, 720 h, 100 mg/kg i.p., nonoptimal Q1DX9 instead of Q3DX9, read-out: L1210 Leukemia % T/C (median survival time)
smiles,measurement,setting,value
Cc1c(-c2ccc(-c3ccccc3)cc2)nc2ccc(C(F)(F)F)cc2c1C(=O)O [Example 56],response vs control in vivo at 75 mg/kg,L1210 leukemia; [2],176%
same,IC50,[1]; [3],< 0.5 µg/mL
O=C(O)c1cc(-c2ccc(C3CCCCC3)cc2)nc2ccc(F)cc12 [Example 5],response vs control in vivo at 400 mg/kg,L1210 leukemia; [4],141%
same,IC50,[1]; [3],0.02 µg/mL
Cc1ccc2nc(-c3ccc(-c4ccccc4)cc3)c(C)c(C(=O)O)c2c1Cl [Example 83],response vs control in vivo at 100 mg/kg,L1210 leukemia; [5],198%
same,IC50,[1]; [3],> 1 µg/mL
CCC(C)c1ccc(-c2nc3ccc(F)cc3c(C(=O)O)c2C)cc1 (stereo not drawn) [Example 9],response vs control in vivo at 200 mg/kg,L1210 leukemia; [4],127%
same,in vitro HCT-15 ID50 (50 percent inhibition of number of doublings),[1]; [3],0.07 µg/mL
CCc1ccc(-c2ccc(-c3nc4ccc(F)cc4c(C(=O)O)c3C)cc2)cc1 [Example 130],response vs control in vivo at 50 mg/kg,L1210 leukemia; [4],132%
same,in vitro HCT-15 ID50 (50 percent inhibition of number of doublings),[1]; [3],> 1.0 µg/mL
Cc1c(-c2ccc(Oc3ccc(Cl)cc3)cc2)nc2ccc(F)cc2c1C(=O)O [Example 119],L1210 Leukemia % T/C (median survival time),L1210 leukemia; 18 mg/kg i.p.,170%
same,in vitro HCT-15 ID50 (50 percent inhibition of number of doublings),[1]; [3],< 0.50 µg/mL
Cc1c(-c2ccc(-c3ccc(Br)cc3)cc2)nc2ccc(F)cc2c1C(=O)O [Example 12],response vs control in vivo at 50 mg/kg,L1210 leukemia; [4],261%
same,IC50,[1]; [3],1 µg/mL
Cc1c(-c2ccc(Oc3ccccc3)cc2)nc2ccc(C(F)(F)F)cc2c1C(=O)O [Example 57],response vs control in vivo at 150 mg/kg,"L1210 leukemia; Mus musculus, L1210, ip, 720 h, 150 mg/kg i.p., read-out: L1210 Leukemia % T/C (median survival time)",197%
same,IC50,[1]; [3],< 0.5 µg/mL
CCc1ccc(-c2ccc(-c3nc4ccc(F)cc4c(C(=O)O)c3C)cc2)cc1 [Example 40],response vs control in vivo at 100 mg/kg,L1210 leukemia; [5],157%
same,IC50,[1]; [3],> 1 µg/mL
"Cc1c(-c2ccc(-c3ccccc3F)cc2)nc2ccc(F)cc2c1C(=O)[O-].[Na+] [Example 118, Sodium 2-(2'-Fluoro-1,1'-biphenyl-4-yl)-6-fluoro-3-methylquinoline-4-carboxylate]",response vs control in vivo at 25 mg/kg,"L1210 leukemia; Mus musculus, L1210, ip, 720 h, read-out: L1210 Leukemia % T/C (median survival time), 25 mg/kg i.p.",179%
same,IC50,[1],0.017 µg/mL
Cc1c(-c2ccc(-c3ccc(F)cc3)cc2)nc2cc(Cl)c(F)cc2c1C(=O)O [Example 54],response vs control in vivo at 300 mg/kg,"L1210 leukemia; Mus musculus, L1210, ip, 720 h, 300 mg/kg i.p., read-out: L1210 Leukemia % T/C (median survival time)",125%
same,IC50,[1]; [3],< 0.5 µg/mL
CCc1ccc2nc(-c3ccc(-c4ccccc4)cc3)c(C)c(C(=O)O)c2c1 [Example 141],L1210 Leukemia % T/C (median survival time),L1210 leukemia; 75 mg/kg i.p.,139%
same,in vitro HCT-15 ID50 (50 percent inhibition of number of doublings),[1]; [3],< 0.50 µg/mL
"Cc1c(-c2ccc(-c3ccccc3F)cc2)nc2ccc(F)cc2c1C(=O)OCCN(C)C [Example 198, [6-Fluoro-2-(2'-fluoro-1,1'-biphenyl-4-yl)3-methyl-[(2-dimethylamino)ethyl]ester-4-quinolinecarboxylic acid] hydrochloride]",response vs control in vivo at 100 mg/kg,L1210 leukemia; [5],178%
same,in vitro HCT-15 ID50 (50 percent inhibition of number of doublings),"[1]; HCT-15 cells, compound day 1 to day 4, hydrochloride",< 10^-3 μg/ml
Cc1c(-c2ccc(C3CCCCC3)cc2)nc2ccc(F)cc2c1C(=O)O [Example 181],response vs control in vivo at 37.5 mg/kg,"L1210 leukemia; Mus musculus, L1210, ip, 720 h, 37.5 mg/kg i.p., nonoptimal Q1DX9 instead of Q3DX9, read-out: L1210 Leukemia % T/C (median survival time)",108%
same,in vitro HCT-15 ID50 (50 percent inhibition of number of doublings),[1]; [3],< 0.50 µg/mL
Cc1c(-c2ccc(-c3ccccc3F)cc2)nc2ccc(F)cc2c1C(=O)O [Example 176],response vs control in vivo at 37 mg/kg,"L1210 leukemia; Mus musculus, L1210, ip, 720 h, 37 mg/kg i.p., read-out: L1210 Leukemia % T/C (median survival time)",175%
same,in vitro HCT-15 ID50 (50 percent inhibition of number of doublings),[1]; [3],< 0.50 µg/mL and 0.41 µg/mL
Cc1c(-c2ccc(Sc3ccccc3)cc2)nc2ccc(Cl)cc2c1C(=O)O [Example 173],response vs control in vivo at 25 mg/kg,L1210 leukemia; [6],122%
same,in vitro HCT-15 ID50 (50 percent inhibition of number of doublings),[1]; [3],< 0.50 µg/mL
Cc1c(-c2ccc(C3CCCCC3)cc2)nc2ccc(Br)cc2c1C(=O)O [Example 45],response vs control in vivo at 400 mg/kg,L1210 leukemia; [4],160%
same,in vitro HCT-15 ID50 (50 percent inhibition of number of doublings),[1]; [3],0.13 µg/mL
CCc1c(-c2ccc(C3CCCCC3)cc2)nc2ccc(C)cc2c1C(=O)O [Example 105],response vs control in vivo at 12.5 mg/kg,"L1210 leukemia; Mus musculus, L1210, ip, 720 h, 12.5 mg/kg i.p., nonoptimal Q1DX9 instead of Q3DX9, read-out: L1210 Leukemia % T/C (median survival time)",108%
same,in vitro HCT-15 ID50 (50 percent inhibition of number of doublings),[1]; [3],0.33 µg/mL
Cc1c(-c2ccc(C3CCCCC3)cc2)nc2c(Br)cc(Br)cc2c1C(=O)O [Example 136],response vs control in vivo at 25 mg/kg,L1210 leukemia; [6],103%
same,in vitro HCT-15 ID50 (50 percent inhibition of number of doublings),[1]; [3],> 0.50 µg/mL
Cc1c(-c2ccc(-c3ccccc3)cc2)nc2ccc(Br)cc2c1C(=O)O [Example 52],response vs control in vivo at 75 mg/kg,L1210 leukemia; [2],189%
same,IC50,[1]; [3],< 0.5 µg/mL
Cc1c(-c2ccc(-c3ccccc3)c(F)c2)nc2ccc(F)cc2c1C(=O)O [Example 210],L1210 Leukemia % T/C (median survival time),L1210 leukemia; 25 mg/kg i.p.,177%
same,in vitro HCT-15 ID50 (50 percent inhibition of number of doublings),[1]; [3],.03 µg/mL
Cc1c(-c2ccc(-c3ccccc3)cc2)nc2cc(Cl)cc(Cl)c2c1C(=O)O [Example 82],response vs control in vivo at 100 mg/kg,L1210 leukemia; [5],144%
same,IC50,[1]; [3],> 1 µg/mL
COc1ccc(-c2ccc(-c3nc4ccc(Cl)cc4c(C(=O)O)c3C)cc2)cc1 [Example 24],response vs control in vivo at 400 mg/kg,L1210 leukemia; [4],154%
same,in vitro HCT-15 ID50 (50 percent inhibition of number of doublings),[1]; [3],0.28 µg/mL
O=C(O)c1cc(-c2ccc(C3CCCCC3)cc2)nc2ccc(F)cc12 [Example 95],response vs control in vivo at 100 mg/kg,L1210 leukemia; [7],108%
same,in vitro HCT-15 ID50 (50 percent inhibition of number of doublings),[1]; [3],0.04 µg/mL
Cc1c(-c2ccc(OCc3ccccc3)cc2)nc2ccc(F)cc2c1C(=O)O [Example 16],response vs control in vivo at 400 mg/kg,L1210 leukemia; [4],190%
same,IC50,[1]; [3],1 µg/mL
O=C(O)c1cc(-c2ccc(C3CCCCC3)cc2)nc2ccc(Cl)cc12 [Example 4],response vs control in vivo at 200 mg/kg,L1210 leukemia; [4],128%
same,IC50,[1]; [3],0.48 µg/mL
O=C(O)c1cc(-c2ccc(C3CCCCC3)cc2)nc2ccc(Cl)cc12 [Example 94],response vs control in vivo at 100 mg/kg,L1210 leukemia; [7],107%
same,in vitro HCT-15 ID50 (50 percent inhibition of number of doublings),[1]; [3],0.65 µg/mL
Cc1c(-c2ccc(-c3ccccc3)c(F)c2)nc2ccc(F)cc2c1C(=O)O [Example 207],L1210 Leukemia % T/C (median survival time),L1210 leukemia; 25 mg/kg i.p.,154%
same,IC50,[1]; [3],0.02 µg/mL
Cc1ccc(-c2ccc(-c3nc4ccc(F)c(Cl)c4c(C(=O)O)c3C)cc2)cc1 [Example 168],L1210 Leukemia % T/C (median survival time),L1210 leukemia; 100 mg/kg i.p.,148%
same,IC50,[1]; [3],0.04 µg/mL
CCCCCCCCCCc1ccc(-c2nc3ccc(F)cc3c(C(=O)O)c2C)cc1 [Example 7],response vs control in vivo at 200 mg/kg,L1210 leukemia; [4],136%
same,in vitro HCT-15 ID50 (50 percent inhibition of number of doublings),[1]; [3],2.30 µg/mL
"COc1cccc2c1C(=O)c1c(O)c3c(c(O)c1C2=O)C[C@@](O)(C(=O)CO)C[C@@H]3O[C@H]1C[C@H](N)[C@H](O)[C@H](C)O1 [Adriamycin, reference compound]",response vs control in vivo at 2 mg/kg,L1210 leukemia; [4],183%
same,IC50,[1],0.01 µg/mL
Cc1c(-c2ccc(SC(C)C)cc2)nc2ccc(F)cc2c1C(=O)O [Example 103],response vs control in vivo at 200 mg/kg,"L1210 leukemia; Mus musculus, L1210, ip, 720 h, nonoptimal Q1DX9 instead of Q3DX9, read-out: L1210 Leukemia % T/C (median survival time)",108%
same,in vitro HCT-15 ID50 (50 percent inhibition of number of doublings),[1]; [3],0.17 µg/mL
Cc1ccc(-c2ccc(-c3nc4ccc(F)cc4c(C(=O)O)c3C)cc2)cc1Cl [Example 38],response vs control in vivo at 200 mg/kg,L1210 leukemia; [4],238%
same,IC50,[1]; [3],> 1 µg/mL
